Results as given in patent publication US20160347750A1, “DIHYDROPTERIDINONE DERIVATIVES AND USES THEREOF” (Dana-Farber Cancer Institute, Inc., priority 2014, published 2016).
Read-outs that look alike come from different tables or passages of the source.

Columns and labels:
BRD4.1 [1] = biological target: T1, BRD4.1 (Homo sapiens, UniProt O60885); details: read-out: BRD4.1 (IC50)
BRD4.1 [2] = biological target: T1, BRD4.1; details: read-out: ITC (Kd); BRD4.1, ITC at 25 C
797 = assay: Cellular assay, cell viability by ATPlite, 797 cells; assay type: cell-based; details: for IC50: read-out: 797 IC50
BRD4 [3] = biological target: T2, BRD4 (Homo sapiens, UniProt O60885); assay: BRD4 IC50, first listed in Table 2; assay type: binding; details: first BRD4 value listed in the cell
BRDT = BRDT (Homo sapiens, UniProt Q58F21); assay: BRDT IC50, Table 2; assay type: binding
BRD4 [4] = biological target: T2, BRD4; assay: BRD4 IC50, second listed in Table 2; assay type: binding
PLK1 = PLK1 (Homo sapiens, UniProt P53350); assay: PLK1 kinase IC50, Table 2; assay type: biochemical
MV411 = assay: Cell line IC50, MV411; assay type: cell-based
NOMO1 = assay: Cell line IC50, NOMO1; assay type: cell-based
Kasumi-1 = assay: Cell line IC50, Kasumi-1; assay type: cell-based; details: Kasumi-1 cell line
TF-1 = assay: Cell line IC50, TF-1; assay type: cell-based; details: TF-1 cell line
MOLM-13 = assay: Cell line IC50, MOLM-13; assay type: cell-based; details: MOLM-13 cell line
AURKA = biological target: T3, AURKA (Homo sapiens, UniProt O14965); assay: AURKA kinase IC50, Table 2; assay type: biochemical
T3 sequence (O14965 1-403): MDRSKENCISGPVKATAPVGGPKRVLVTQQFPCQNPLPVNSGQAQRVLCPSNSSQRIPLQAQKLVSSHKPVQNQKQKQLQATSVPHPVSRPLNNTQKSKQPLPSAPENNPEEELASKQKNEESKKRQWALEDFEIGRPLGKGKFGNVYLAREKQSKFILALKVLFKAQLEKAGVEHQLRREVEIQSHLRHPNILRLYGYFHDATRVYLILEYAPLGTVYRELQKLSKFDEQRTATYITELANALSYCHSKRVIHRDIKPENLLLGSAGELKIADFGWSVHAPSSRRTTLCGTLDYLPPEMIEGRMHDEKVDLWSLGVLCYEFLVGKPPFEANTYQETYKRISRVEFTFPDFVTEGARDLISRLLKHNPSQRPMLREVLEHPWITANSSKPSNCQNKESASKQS

HL60 = assay: cells; details: Homo sapiens, HL-60, read-out: HL60 (EC50, M)
[5] = second BRD4 value listed in the cell, read-out: BRD4 IC50
[6] = Homo sapiens, NOMO-1, NOMO1 cell line
[7] = Homo sapiens, NOMO1 (NOMO-1) cell line

PLK1, sequence (P53350 whole entry): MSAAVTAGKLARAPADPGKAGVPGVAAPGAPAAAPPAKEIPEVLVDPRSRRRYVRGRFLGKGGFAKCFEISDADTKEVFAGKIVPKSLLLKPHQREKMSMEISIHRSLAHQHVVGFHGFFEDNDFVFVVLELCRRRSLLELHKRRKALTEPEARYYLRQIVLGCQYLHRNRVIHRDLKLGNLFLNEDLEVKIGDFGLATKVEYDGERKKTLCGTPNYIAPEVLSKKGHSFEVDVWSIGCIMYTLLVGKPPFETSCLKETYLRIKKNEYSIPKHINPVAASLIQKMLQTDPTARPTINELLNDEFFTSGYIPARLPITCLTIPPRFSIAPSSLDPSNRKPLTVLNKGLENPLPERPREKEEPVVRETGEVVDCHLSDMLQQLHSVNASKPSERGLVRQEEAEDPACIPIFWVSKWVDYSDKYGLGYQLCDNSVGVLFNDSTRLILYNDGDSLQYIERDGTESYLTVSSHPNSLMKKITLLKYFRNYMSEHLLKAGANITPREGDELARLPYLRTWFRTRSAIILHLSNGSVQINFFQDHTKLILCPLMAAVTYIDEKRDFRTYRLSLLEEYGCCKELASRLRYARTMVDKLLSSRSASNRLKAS

| SMILES | IC50 (BRD4 [3]) [nM] | IC50 (BRDT) [nM] | IC50 (BRD4 [4]; [5]) [nM] | IC50 (PLK1) [nM] | IC50 (MV411; Homo sapiens, MV4-11) [nM] | IC50 (Kasumi-1; Homo sapiens) [nM] | IC50 (TF-1; Homo sapiens) [nM] | IC50 (MOLM-13; Homo sapiens) [nM] | IC50 (NOMO1; [7]) [nM] | IC50 (797; 797 cell line, Table 2) [nM] | further results |
| --- | --- | --- | --- | --- | --- | --- | --- | --- | --- | --- | --- |
| CC[C@@H]1C(=O)N(C)c2cnc(Nc3ccc(C(=O)N[C@H]4CC[C@H](N5CCN(CC6CC6)CC5)CC4)cc3OC)nc2N1C(C)C | – | – | – | – | – | – | – | – | – | – | IC50 (BRD4.1 [1]): 1070 nM; Kd (BRD4.1 [2]): 255 nM |
| CC[C@@H]1C(=O)N(C)c2cnc(Oc3ccc(C(=O)NC4CCN(C)CC4)cc3OC)nc2N1C1CCCC1 | 415 | 1170 | 720 | > 10000 | 316 | 1290 | 5400 | 1590 | – | 425 | IC50 (NOMO1; [6]): 7400 nM |
| CC[C@@H]1C(=O)Nc2cnc(Nc3ccc(C(=O)NC4CCN(C)CC4)cc3OC)nc2N1C1CCCC1 | 9170 | 21100 | 6300 | 129 | 302 | 1470 | 6700 | 341 | – | 420 | IC50 (NOMO1; [6]): 3200 nM |
| CC[C@@H]1C(=O)N(C)c2cnc(Nc3ccc(C(=O)NC4CCN(C)CC4)cc3)nc2N1C1CCCC1 | 147 | 688 | – | 4.1 | 10 | – | – | 8.5 | 29 | – | IC50 797: 6 nM; IC50 (BRD4 [4]): 231 nM; IC50 (AURKA): 9360 nM |
| CC[C@@H]1C(=O)N(C)c2cnc(N3CCOc4cc(C(=O)NC5CCN(C)CC5)ccc43)nc2N1C1CCCC1 | 1620 | 5370 | 832 | 1700 | 976 | – | – | 3490 | 5420 | 1940 | – |
| CC[C@@H]1C(=O)N(C)c2ccc(N3CCc4cc(C(=O)NC5CCN(C)CC5)ccc43)nc2N1C1CCCC1 | 394 | 1050 | 172 | > 10000 | 357 | – | – | 828 | 1730 | 937 | – |
| COc1cc(C(=O)NC2CCN(C)CC2)ccc1Nc1ncc2c(n1)N(C1CCCC1)[C@H](CC(C)C)C(=O)N2C | 13500 | 24500 | 18800 | 78 | 550 | – | – | 461 | 775 | 292 | – |
| Cc1sc2c(c1C)C(c1ccc(Cl)cc1)=N[C@@H](CC(=O)OC(C)(C)C)c1nnc(C)n1-2 [JQ1, reference compound] | – | – | – | – | – | – | – | – | – | 92 | IC50 (MV411): 65.6 nM; IC50 (NOMO1; NOMO1 (NOMO-1) cell line): 172 nM; IC50 (Kasumi-1): 48.8 nM; IC50 (TF-1): 109 nM; IC50 (MOLM-13): 89.2 nM |
| CC[C@@H]1C(=O)N(C)c2cnc(Nc3ccc(C(=O)NC4CCN(C)CC4)cc3OC)nc2N1C1CCCC1 [drawing 199] | – | – | – | – | – | – | – | – | – | – | EC50 (797; read-out: 797 (EC50, M)): 1.07e-08 M; EC50 (HL60): 3.65e-08 M |
| CC[C@@H]1C(=O)N(C)c2cnc(Nc3ccc(C(=O)NC4CCN(C)CC4)cc3OC)nc2N1C1CCCC1 [drawing 214] | – | – | – | – | 5.4 | 9.9 | 772 | 8.1 | 11.9 | – | IC50 797: 5 nM |
| C[C@@H](Oc1cc(-n2cnc3ccc(CN4CCN(C)CC4)cc32)sc1C(N)=O)c1ccccc1C(F)(F)F [reference compound] | > 50000 | > 50000 | – | – | 7.1 | 7.8 | – | – | – | 8 | TF-1 IC50 (TF-1; result in words): poor convergence |

More lines, main results first:

| IC50 (BRD4 [3]) [nM] | IC50 (BRDT) [nM] | IC50 (BRD4 [4]; [5]) [nM] | IC50 (PLK1) [nM] | IC50 (MV411; Homo sapiens, MV4-11) [nM] | IC50 (Kasumi-1; Homo sapiens) [nM] | IC50 (TF-1; Homo sapiens) [nM] | IC50 (MOLM-13; Homo sapiens) [nM] | IC50 (NOMO1; [7]) [nM] | SMILES | IC50 (797; 797 cell line, Table 2) [nM] | further results |
| --- | --- | --- | --- | --- | --- | --- | --- | --- | --- | --- | --- |
| 130 | 365 | 247 | 725 | 200 | 339 | 1580 | 351 | 771 | CC[C@@H]1C(=O)N(C)c2cnc(N(C)c3ccc(C(=O)NC4CCN(C)CC4)cc3OC)nc2N1C1CCCC1 | 342 | – |
| 112 | 491 | 78 | 19 | 71.2 | 74.9 | 302 | 114 | 114 | CC[C@@H]1C(=O)N(C)c2cnc(Nc3ccc(C(=O)NC4CCN(C)CC4)cc3OC3CCCC3)nc2N1C1CCCC1 | 95 | – |
| 339 | 1330 | 546 | – | 112 | 239 | 806 | 174 | 232 | CC[C@@H]1C(=O)N(CC)c2cnc(Nc3ccc(C(=O)NC4CCN(C)CC4)cc3OC)nc2N1C1CCCC1 | 166 | – |
| 175 | 862 | 228 | 57.6 | – | – | – | – | – | CC[C@@H]1C(=O)N(C)c2cnc(Nc3ccc(C(=O)NC4CCN(C)CC4)cc3OC3CCOCC3)nc2N1C1CCCC1 | 88 | IC50 (MV411): 74.6 nM; IC50 (NOMO1; NOMO1 (NOMO-1) cell line): 491 nM; IC50 (Kasumi-1): 183 nM; IC50 (TF-1): 1160 nM; IC50 (MOLM-13): 111 nM |
| 53 | 213 | 43 | 20 | 86 | – | – | 137 | 247 | CC[C@@H]1C(=O)N(C)c2cnc(N3CCc4cc(C(=O)NC5CCN(C)CC5)ccc43)nc2N1C1CCCC1 | 64 | – |
| 263 | 859 | 188 | 1870 | 404 | – | – | 851 | 1830 | CC[C@@H]1C(=O)N(C)c2ccc(Nc3ccc(C(=O)NC4CCN(C)CC4)cc3OC)nc2N1C1CCCC1 | 701 | – |
| 160 | 469 | 78 | > 10000 | 135 | – | – | 333 | 728 | C[C@@H]1C(=O)N(C)c2ccc(N3CCc4cc(C(=O)NC5CCN(C)CC5)ccc43)nc2N1C1CCCC1 | 227 | – |
| 92 | 249 | 100 | > 10000 | 21 | – | – | 218 | 529 | COc1cc(C(=O)NC2CCN(C)CC2)ccc1Nc1ccc2c(n1)N(C1CCCC1)[C@H](C)C(=O)N2C | 181 | – |
